Laboratory results published in PMC10758931 (RSC Advances, 2024).
Values after ≈ are worked out from the molar mass of the structure shown.

How the values were obtained:
[1] = tested on: MCF-7 cell line; experiment: Cytotoxic activity; type: cell-based; conditions: for CC50: Homo sapiens, MCF7, read-out: LC50, MCF-7 cell line; for SI (Selectivity index = LC50 value normal cell/LC50 value cancer cell): Vero / MCF-7
[2] = tested on: normal Vero cell line; experiment: Cytotoxic activity; type: cell-based; conditions: MTT, mean ± standard error of three experiments

Row | Compound | CC50 [1] [µg/mL] | SI (Selectivity index = LC50 value normal cell/LC50 value cancer cell) [1] | LC50, MCF-7 cell line ([1]; MCF-7, MTT, mean ± standard error of three experiments) [µg/mL] | LC50, Vero [2] [µg/mL]
1 | Cc1nn(-c2ccccc2)c2c1C(c1ccc(Cl)cc1)N(C(=O)c1ccncc1)N2 (stereo not drawn) [Compound 1b] | 22.1 ± 0.04 (≈ 53.1 µM) | 2.95 | – | –
2 | Cc1nn(-c2ccccc2)c2c1C(c1ccc(O)cc1)N(C(=O)c1ccncc1)N2 (stereo not drawn) [Compound 1c] | 70.1 ± 0.05 (≈ 176 µM) | 1.05 | – | –
3 | Cc1nn(-c2ccccc2)c2c1C(c1ccc([N+](=O)[O-])cc1)N(C(=O)c1ccncc1)N2 (stereo not drawn) [Compound 1d] | 91.1 ± 0.06 (≈ 214 µM) | 0.91 | – | –
4 | COc1ccc(C2c3c(C)nn(-c4ccccc4)c3NN2C(=O)c2ccncc2)cc1 (stereo not drawn) [Compound 1e] | 23.62 ± 0.02 (≈ 57.4 µM) | 3.36 | – | –
5 | Cc1nn(-c2ccccc2)c2c1C(c1ccc(N(C)C)cc1)N(C(=O)c1ccncc1)N2 (stereo not drawn) [Compound 1f] | 19.92 ± 0.01 (≈ 46.9 µM) | 4.12 | – | –
6 | CC(C)=CCCC(C)=CC1c2c(C)nn(-c3ccccc3)c2NN1C(=O)c1ccncc1 (stereo not drawn) [Compound 1g] | 30.82 ± 0.04 (≈ 72.1 µM) | – | – | –
7 | Cc1nn(-c2ccccc2)c2c1C(c1c[nH]c3ccccc13)N(C(=O)c1ccncc1)N2 (stereo not drawn) [Compound 1h] | 21.43 ± 0.03 (≈ 51 µM) | – | – | –
8 | Cc1nn(-c2ccccc2)c2c1C(c1ccco1)N(C(=O)c1ccncc1)N2 (stereo not drawn) [Compound 1i] | 26.66 ± 0.05 (≈ 71.8 µM) | – | – | –
9 | Cc1nn(-c2ccccc2)c2c1C(c1ccccn1)N(C(=O)c1ccncc1)N2 (stereo not drawn) [Compound 1j] | 57.34 ± 0.08 (≈ 150 µM) | 1.45 | – | –
10 | Cc1nn(-c2ccccc2)c2c1C(c1cncs1)N(C(=O)c1ccncc1)N2 (stereo not drawn) [Compound 1k] | 62.34 ± 0.07 (≈ 160 µM) | 1.25 | – | –
11 | COc1cccc2c1C(=O)c1c(O)c3c(c(O)c1C2=O)C[C@@](O)(C(=O)CO)C[C@@H]3O[C@H]1C[C@H](N)[C@H](O)[C@H](C)O1 [Doxorubicin, doxorubicin, reference compound] | 0.65 ± 0.01 (≈ 1.2 µM) | 32.38 | – | –
12 | (3-(4-chlorophenyl)-4-methyl-6-phenyl pyrazolo[3,4-c]pyrazol-2(1H,3H,6H)-yl)(pyridin-4-yl)methanone [Compound 1a] | – | – | 78.10 ± 0.02 | 55.02 ± 0.11
